Legend:
[1] = test system: relapsed B-cell Non-Hodgkin's Lymphoma (NHL), including Chronic Lymphocytic Leukemia (CLL); test: Phase 1b study of Compound A35 and rituximab in patients with relapsed B-cell malignancies; type: in vivo, human
Method: Study of a Combination of a PI3K Inhibitor and a CD20 Inhibitor in Patients with Relapsed B-Cell Non-Hodgkin's Lymphoma (NHL), Including Chronic Lymphocytic Leukemia (CLL)
The purpose of this study is to evaluate the safety and effectiveness of Compound A35 (single dose: 60 mg/day) and rituximab, in patients with relapsed B-cell malignancies.
• Study Type: Interventional • Study Design: Intervention Model: Single Group Assignment • Masking: No masking • Primary Purpose: Treatment
Primary Outcome Measures: • Determine Acceptable Adverse Events That Are Related to Treatment [Time Frame: 6 months of therapy]. To determine the incidence of adverse events, any potential abnormal laboratory results and any dose-limiting toxicities Secondary Outcome Measures: • Efficacy of Compound A35 with Rituximab as assessed by Overall Response (OR) [Time Frame: 2 years]. The efficacy of Compound A35 with Rituximab will be determined by the overall response of subjects calculated as the percent of subjects achieving a complete remission (CR) or a complete remission with incomplete marrow recovery (CRi) or a partial response (PR) according to the International Workshop on Chronic Lymphocytic Leukemia (IWCLL). • Evaluate the PK of Compound A35 with Rituximab (AUC) [Time Frame: 2 years] Determined by the Area Under the Concentration time curve (AUC) • Evaluate the PK of Compound A35 with Rituximab (Cmax) [Time Frame: 2 years] Determined by Peak Plasma Concentration (Cmax)
Eligibility • Ages Eligible for Study: 18 Years and older (Adult, Senior) • Sexes Eligible for Study: All • Accepts Healthy Volunteers: No Criteria Inclusion Criteria: • Diagnosis of relapsed/refractory CLL SLL or FL, MZL, DLBCL and high-grade B-cell lymphoma.
Dosing of Compound A35 is done on a continuous dosing schedule (CS) or an intermittent dosing schedule (IS). On an IS, patients take 60 mg administered once a day on 7 consecutive days followed by 21 days without therapy, with cycles repeated every 28 days. On a CS, patients take 60 mg/day for the entirety of a 28 day cycle. All patients are started on a CS dosing regimen. Patients who complete two cycles of CS are switched to the IS.
In all cases, the dosing of rituximab is 375 mg/m2, administered for a total of 8 doses in 6 months.
15 patients were treated with a regimen consisting of rituximab 375 mg/m^2×8 doses over 6 months and Compound A35 at 60 mg on the CS for 2 cycles then switching to the IS.

[2] = test system: relapsed chronic lymphocytic leukemia (CLL); conditions: combination of idelalisib and a CD20 inhibitor (e.g., rituximab or ofatumumab); cited from earlier work

| Compound | response (patients with a reported response) ([1]; in combination with rituximab 375 mg/m2 x 8 doses in 6 months, Compound A35 60 mg/day continuous schedule (CS), indolent NHL (9 FL, 1 MZL), 7 of 10 patients) | disease progression on the IS among patients with a disease response after 2 cycles ([1]; in combination with rituximab, 8 responders, median follow-up 5.2 months from enrollment) | patients with disease progression, discontinued from the study ([1]; in combination with rituximab, CS of Compound A35 60 mg/day, indolent NHL, 10 patients) | rate of response (in words) ([1]; in combination with rituximab, CS, patients) | patients discontinued due to disease progression ([1]; in combination with rituximab, Compound A35 60 mg/day, DLBCL, 4 patients) | response (patients with a reported response) ([1]; in combination with rituximab, Compound A35 60 mg/day, DLBCL, 1 of 4 patients) | patients who developed delayed immune-related toxicity ([1]; in combination with rituximab, after 2 cycles CS switched to intermittent schedule (IS, 60 mg 7 days on/21 days off), 1/10 patients, median follow-up 3.4 months on the IS) | effect of the IS on delayed onset immune toxicities and efficacy (in words) ([1]; in combination with rituximab, intermittent schedule after 2 CS cycles, preliminary data) | rate of response (in words) ([1]; in combination with rituximab, patients with relapsed indolent NHL and CLL/SLL) | durability of responses (in words) ([1]; in combination with rituximab, relapsed indolent NHL and CLL/SLL) | risk of death due to infection and/or severe adverse effects (in words) [2] |
| --- | --- | --- | --- | --- | --- | --- | --- | --- | --- | --- | --- |
| CN1CCC(c2ccccc2CC(C)(C)Nc2nc(N3CCOCC3)nc(-n3c(C(F)F)nc4ccccc43)n2)CC1 [Compound A35] | 70% | none | 1 patient | very high rate of response | 3 patients | 25% | 10% | appears to reduce the incidence of delayed onset immune toxicities without erosion in treatment efficacy | very high rate of response | appear durable | – |
| CC[C@H](Nc1ncnc2[nH]cnc12)c1nc2cccc(F)c2c(=O)n1-c1ccccc1 [idelalisib] | – | – | – | – | – | – | – | – | – | – | alarming increase in the risk of death due to infection and/or severe adverse effects |
